Data taken from US4820834A, “Benzodiazepine analogs” (priority 1987, dated 1989).
Like-named read-outs stand apart in the source and are kept apart here.

What was measured:
[1] = molecular target: T1, CCK receptor (brain, cerebral cortex) (Cavia porcellus, UniProt H0VZC5); assay: biochemical; format: binding, Male Hartley guinea pigs; details: guinea pig cerebral cortex, ^125 I-CCK-33, 25° C., 2 hours
T1 construct: Cerebral cortex was dissected and used as a receptor source; from tissue; host or cells: guinea pig cerebral cortex membranes (male Hartley)
T1 sequence (H0VZC5 1-426): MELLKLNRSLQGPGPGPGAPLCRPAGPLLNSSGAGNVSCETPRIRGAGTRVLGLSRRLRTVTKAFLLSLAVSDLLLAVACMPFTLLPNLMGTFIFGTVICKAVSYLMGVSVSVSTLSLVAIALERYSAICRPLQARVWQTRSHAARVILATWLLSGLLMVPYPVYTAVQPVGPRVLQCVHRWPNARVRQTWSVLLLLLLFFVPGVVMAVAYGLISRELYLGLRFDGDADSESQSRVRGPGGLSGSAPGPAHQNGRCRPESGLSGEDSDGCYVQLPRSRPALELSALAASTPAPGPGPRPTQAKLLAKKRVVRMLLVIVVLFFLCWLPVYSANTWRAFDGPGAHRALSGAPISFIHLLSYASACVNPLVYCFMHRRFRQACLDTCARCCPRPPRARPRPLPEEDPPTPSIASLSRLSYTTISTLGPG
Summary of the method: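 Binding of [radiolabeled] CCK-33 measured by gamma counting of centrifuged pellets after 2 h at 25°C. Membranes came from guinea pig brain cortex, suspended in 10 mM HEPES, 5 mM MgCl2, 1 mM EGTA, 0.25 mg/ml bacitracin, 0.4% BSA.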

CCK receptor (pancreas) = molecular target: T2, CCK receptor (pancreas) (Rattus norvegicus, UniProt P30551); assay: CCK Receptor Binding (Pancreas): inhibition of ^125 I-CCK-33 binding; set-up: species or system Male Sprague-Dawley rats; details: rat pancreas membranes, ^125 I-CCK-33, 37° C., 30 minutes
T2 construct: The whole pancreas was dissected free of fat tissue and was homogenized; from tissue; host or cells: rat pancreas membranes (Sprague-Dawley)
T2 sequence (P30551 1-444): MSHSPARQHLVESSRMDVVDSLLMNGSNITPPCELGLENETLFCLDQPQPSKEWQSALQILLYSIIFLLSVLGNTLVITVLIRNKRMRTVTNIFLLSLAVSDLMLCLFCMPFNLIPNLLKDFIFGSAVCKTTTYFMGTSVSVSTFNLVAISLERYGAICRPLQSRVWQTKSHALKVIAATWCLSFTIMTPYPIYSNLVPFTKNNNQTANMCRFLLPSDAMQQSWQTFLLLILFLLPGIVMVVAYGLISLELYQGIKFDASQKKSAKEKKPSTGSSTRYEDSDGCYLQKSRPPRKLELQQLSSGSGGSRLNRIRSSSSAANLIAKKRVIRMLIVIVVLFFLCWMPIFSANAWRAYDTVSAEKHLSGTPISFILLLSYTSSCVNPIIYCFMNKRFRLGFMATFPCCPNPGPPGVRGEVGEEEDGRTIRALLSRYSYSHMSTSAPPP
Experimental: 1. CCK Receptor Binding (Pancreas)
CCK-33 was radiolabeled with ^125 I-Bolton Hunter reagent (2000 Ci/mmole) as described by Sankara et al. (J. Biol. Chem. 254: 9349-9351, 1979). Receptor binding was performed according to Innis and Snyder (Proc. Natl. Acad. Sci. 77: 6917-6921, 1980) with the minor modification of adding the additional protease inhibitors, phenylmethane sulfonyl fluoride and o-phenanthroline.
Male Sprague-Dawley rats (200-350 g) were sacrificed by decapitation. The whole pancreas was dissected free of fat tissue and was homogenized in 20 volumes of ice-cold 50 mM, Tris HCl (pH 7.7 at 25° C.) with a Brinkmann Polytron PT 10. The homogenates were centrifuged at 48,000 g for 10 min. Pellets were resuspended in Tris Buffer, centrifuged as above and resuspended in 200 volumes of binding assay buffer (50 mM Tris HCl, pH 7.7 at 25° C., 5 mM dithiothrietol, 0.1 mM bacitracin, 1.2 mM phenylmethane sulfonyl fluoride and 0.5 mM o-phenanthroline). […] All assays were run in duplicate or triplicate. The reaction mixtures were incubated at 37° C. for 30 minutes and centrifuged in a Beckman Microfuge (4 minutes) immediately after adding 1 ml of ice-cold incubation buffer. The supernatant was aspirated and discarded, pellets were counted with a Beckman gamma 5000. For Scatchard analysis (Ann. N.Y. Acad. Sci. 51: 660, 1949), ^125 I-CCK-33 was progressively diluted with increasing concentrations of CCK-33.

[2] = read-out: IC50 ^125 I-CCK Brain
[3] = read-out: IC50 ^125 I-CCK Pancreas

| SMILES | IC50 (CCK receptor (pancreas); IC50 ^125 I-CCK Pancreas) [µM] | further results |
| --- | --- | --- |
| O=C1Nc2ccc(Cl)cc2C(c2ccccc2)=NC1Cc1cccc2ccccc12 (racemic) [Example 17, 7-Chloro-1,3-dihydro-3(RS)-(1-naphthyl)methyl-5-phenyl-2H-1,4-benzodiazepin-2-one] | 23 | IC50 ([1]; IC50 ^125 I-CCK Brain): 100 µM |
| O=C1Nc2ccc(Cl)cc2C(c2ccccc2)=NC1Cc1ccc2ccccc2c1 (racemic) [Example 18, 7-Chloro-1,3-dihydro-3(RS)-(2-naphthyl)methyl-5-phenyl-2H-1,4-benzodiazepin-2-one] | 49 | IC50 ([1]; IC50 ^125 I-CCK Brain): 61 µM |
| O=C1Nc2ccccc2C(c2ccccc2F)=NC1Cc1cccs1 (racemic) [Example 19, 1,3-Dihydro-5-(2-fluorophenyl)-3(RS)-(2-thienyl)methyl-2H-1,4-benzodiazepin-2-one] | 33 | IC50 ([1]; IC50 ^125 I-CCK Brain): > 100 µM |
| O=C1Nc2ccccc2C(c2ccccc2F)=NC1c1ccsc1 (racemic) [Example 20, 1,3-Dihydro-5-(2-fluorophenyl)-3(RS)-(3-thienyl)-2H-1,4-benzodiazepin-2-one] | > 100 |  |
| O=C1Nc2ccccc2C(c2ccccc2F)=NC1Cc1c[nH]c2ccc(F)cc12 (racemic) [Example 59, 1,3-Dihydro-3(RS)-[3'-(5'-fluoroindolyl)methyl]-5-o-fluorophenyl-2H-1,4-benzpdiazepin-2-one] | 1.4 |  |
| O=C1Nc2ccccc2C(c2ccccc2F)=NC1Cc1c[nH]c2cc(F)ccc12 (racemic) [Example 60, 1,3-Dihydro-3(RS)-[3'-(6'-fluoroindolyl)methyl]-5-o-fluorophenyl-2H-1,4-benzodiazepin-2-one] | 1.3 | IC50 ([1]; IC50 ^125 I-CCK Brain): 100 µM |
| O=C1Nc2ccccc2C(c2ccccc2F)=N[C@@H]1Cc1c[nH]c2ccccc12 [2 & 3] | 0.4 |  |
| CN1C(=O)[C@@H](Cc2cn(C)c3ccccc23)N=C(c2ccccc2F)c2ccccc21 [4a & 44] | 0.36 |  |
| CN1C(=O)/C(=C\c2ccsc2)N=C(c2ccccc2)c2ccccc21 [95 E] | 25 |  |
| CN1C(=O)/C(=C/c2ccsc2)N=C(c2ccccc2)c2ccccc21 [95 Z] | 100 |  |
| CN1C(=O)[C@@H](Cc2c[nH]c3ccccc23)N=C(c2ccccc2F)c2ccccc21 [Example 4b, 1,3-dihydro-5-(2-fluorophenyl)-3(R)-(3'-indolyl) methyl-1-methyl-2H-1,4-benzodiazepin-2-one] | 0.27 | IC50 ([1]; IC50 ^125 I-CCK Brain): 18 µM |
| O=C1Nc2ccc(Cl)cc2C(c2ccccc2)=N[C@@H]1Cc1c[nH]c2ccccc12 [Example 5, 7-Chloro-1,3-dihydro-3(R)-(3'-indolyl)methyl-5-phenyl-2H-1,4-benzodiazepin-2-one] | 3.4 | IC50 ([1]; IC50 ^125 I-CCK Brain): 100 µM |
| O=C1Nc2ccccc2C(c2ccccc2)=N[C@@H]1Cc1c[nH]c2ccccc12 [Example 6, 1,3-Dihydro-3(R)-(3'-indolyl)methyl-5-phenyl-2H-1,4-benzodiazepin-2-one] | 1.2 | IC50 ([1]; IC50 ^125 I-CCK Brain): 50 µM |
| Fc1ccccc1C1=N[C@H](Cc2c[nH]c3ccccc23)CNc2ccccc21 [Example 12, 1,3-Dihydro-5-(2-fluorophenyl)-3(R)-(3'-indolyl)methyl-2H-1,4-benzodiazepin] | 4 |  |
| O=C1Nc2ccc(Cl)cc2C(c2ccccc2)=N[C@@H]1Cc1ccccc1 [Example 13, 7-Chloro-1,3-dihydro-3(R)-benzyl-5-phenyl-2H-1,4-benzodiazepin-2-one] | 80 |  |
| O=C1Nc2ccc(Cl)cc2C(c2ccccc2)=N[C@@H]1Cc1ccc(OCc2ccccc2)cc1 [Example 16, 7-Chloro-1,3-dihydro-3(R)-(4-benzyloxybenzyl)-5-phenyl-2H-1,4-benzodiazepin-2-one] | > 100 | IC50 ([1]; IC50 ^125 I-CCK Brain): > 100 µM |
| O=C1Nc2ccc(Cl)cc2C(c2ccccc2)N[C@@H]1Cc1c[nH]c2ccccc12 (stereo partly drawn) [Example 25, 7-Chloro-1,3,4,5-tetrahydro-3(R)-(3'-indolyl)methyl-5-phenyl-2H-1,4-benzodiazepin-2-one] |  | IC50 [1, 2]: > 100 µM; IC50 (CCK receptor (pancreas); [3]): 12 µM |
| O=C1Nc2ccc(Cl)cc2C(c2ccccc2)N[C@H]1Cc1c[nH]c2ccccc12 (stereo partly drawn) [Example 26, 7-Chloro-1,3,4,5-tetrahydro-3(S)-(3'-indolyl)methyl-5-phenyl-2H-1,4-benzodiazepin-2-one] |  | IC50 [1, 2]: > 100 µM; IC50 (CCK receptor (pancreas); [3]): 75 µM |
| CC1=N[C@H](Cc2c[nH]c3ccccc23)C(=O)Nc2ccccc21 [Example 29, 1,3-Dihydro-3(R)-(3'-indolyl)methyl-5-methyl-2H-1,4-benzodiazepin-2-one] |  | IC50 (CCK receptor (pancreas); [3]): 48 µM |
| O=C1Nc2ccccc2C(c2ccccc2F)=N[C@H]1Cc1c[nH]c2ccccc12 [Example 32, 1,3-Dihydro-5-(2-fluorophenyl)-3(S)-(3'-indolyl) methyl-2H-1,4-benzodiazepin-2-one] | 10.6 |  |
| O=C1[C@@H](Cc2c[nH]c3ccccc23)N=C(c2ccccc2F)c2ccccc2N1CC1CC1 [Example 37, 1-Cyclopropylmethyl-1,3-dihydro-5-(2-fluorophenyl)-3(R)-(3'-indolyl)methyl-2H-1,4-benzodiazepin-2-one] | 2.2 |  |
| CCCCCN1C(=O)[C@@H](Cc2c[nH]c3ccccc23)N=C(c2ccccc2F)c2ccccc21 [Example 38, 1,3-Dihydro-5-(2-fluorophenyl)-3(R)-(3'-indolyl) methyl-1-pentyl-2H-1,4-benzodiazepin-2-one] | 100 |  |
| O=C1[C@@H](Cc2c[nH]c3ccccc23)N=C(c2ccccc2F)c2ccccc2N1CC(F)(F)F [Example 40, 1,3-Dihydro-5-(2-fluorophenyl)-3(R)-(3'-indolyl)methyl-1-(2,2,2-trifluoroethyl)-2H-1,4-benzodiazepin-2-one] | 3.6 |  |
| CN(C)CCN1C(=O)[C@@H](Cc2c[nH]c3ccccc23)N=C(c2ccccc2F)c2ccccc21 [Example 41, 1,3-Dihydro-1-(2-dimethylaminoethyl)-5-(2-fluorophenyl) 3(R)-(3'-indolyl)methyl-2H-1,4-benzodiazepin-2-one] | 100 |  |
| O=C(O)c1ccccc1C1=N[C@H](Cc2c[nH]c3ccccc23)C(=O)Nc2ccccc21 [Example 58, 5-o-Carboxyphenyl-1,3-dihydro-3(R)-(3+-indolyl)methyl-2H-1,4-benzodiazepin-2-one] | 18 |  |
| NC(=O)CN1C(=O)[C@@H](Cc2c[nH]c3ccccc23)N=C(c2ccccc2F)c2ccccc21 [Example 123, 1-Carboxamidomethyl-1,3-dihydro-3R-(3-indolylmethyl)-5-(2-fluorophenyl)-2H-1,4-benzodiazepin-2-one] | 2.1 |  |
| O=C1Nc2ccccc2C(c2ccccc2)=NC1CC1CNc2ccccc21 (centres unmarked) [Example 199, 3-((2,3-Dihydro-1H-indol-3-yl)methyl)-1,3-dihydro-5-phenyl-2H-1,4-benzodiazepin-2-one] | 3.2 |  |
| CC(C)CC(NC(=O)OC(C)(C)C)C(=O)N1CC(CC2N=C(c3ccccc3)c3ccccc3NC2=O)c2ccccc21 (centres unmarked) [Example 225, (1-((3-((2,3-Dihydro-2-oxo-5-phenyl-1H-1,4-benzodiazepin-3-yl)methyl)-2,3-dihydro-1H-indol-1-yl)carbonyl)-3-methylbutyl)-carbamic acid-1,1-dimethylethyl ester] | 4.7 |  |
